Test results: US20120077803A1, “Uses Of NK Receptor Antagonists” (NOVARTIS AG, priority 2009, published 2012)

Tests used:
[1] = tested on: dogs with flea allergic dermatitis; assay: Skin lesion scores (total lesion score) in dogs with flea-allergic dermatitis; type: in vivo, Beagle dogs; conditions: Prednisolone 10 mg/day orally
Experimental: (§1) Flea-allergic laboratory Beagle dogs are infested with fleas. Fifty (50) Ctenocephalides felis fleas, 18 to 20 days old are released on the back of every dog on D1. Dogs are combed 48 hours (D3) after infestation to reduce the number of fleas (reduction of allergen charge).
Skin observations: before flea infestations (D −1) all dogs are typically examined to establish a baseline score for erythema, papules, crusts, scales, alopecia, and excoriation. From D1, daily clinical observations are performed. Each lesion is typically graded using a scale from 0 to 3:
0=no signs 1=mild 2=moderate 3=severe
(§2) Skin lesions are allowed to develop until the total lesion score reaches ˜20. The Test Compound is then given orally at 50, 150 and 300 mg/day, divided into 2 doses, for 5 days. Prednisolone (10 mg/day, orally) is used as a comparator.
Erythema: is typically an acute clinical sign of cutaneous inflammation defined as redness of the skin caused by capillary congestion which can be aggravated by scratching. Excoriation: is typically a punctuate or linear abrasion produced by mechanical means, usually involving only the epidermis but not uncommonly reaching the papillary dermis. […] Papule: is typically a circumscribed, solid elevation with no visible fluid, varying in size from a pinhead to 1 cm. […], formed when there is a high break in the follicle wall. In the presence of bacteria, papules become pustules. Crusts: are typically dried serum, pus, or blood usually mixed with epithelial and sometimes bacterial debris. Scales: are dry or greasy laminated masses of keratin.
(§3) Lesion scores and Actical™ measurement values are typically observed on the following days: • Pre-value: before challenge with fleas • the day of challenge with fleas (Actical™ measurements only); • D1: the day when the total lesion score reached a sufficiently high value (average lesion score 20) and treatment of the animal started. • D2 to D6,
(§4) In the treatment group, lesion scores were taken from 8 dogs. Actical™ measurements were also taken from 6 of these dogs.
• Erythema*, • Excoriations*, • Papules/pustules • Self induced alopecia^o, and • Scales, • Erythema and excoriations are related to pruritus • Self induced alopecia is also related to pruritus but the improvement is […] after several weeks of treatment.
Day 1 of treatment when dogs reached a sufficient lesion score to initiate treatment (average 20). Pre-values (baseline).

[2] = tested on: dogs with flea allergic dermatitis; assay: Pruritus intensity by Actical activity monitors in flea allergic dogs; type: in vivo, Beagle dogs; conditions: Prednisolone 10 mg/day orally; for Actical day, mean (standard deviation): 6am-6pm; for Actical night, mean (standard deviation): 6pm-6am
Experimental: as §1
Pruritus intensity: Pruritus intensity is evaluated using activity monitors (Actical™: Actiwatch™; Cambridge Neuorotechnology Ltd, Papworth Everard, UK) according to Nuttall and McEwan. (Nuttal T and McEwan N, “Objective measurement of pruritus in dogs: a preliminary study using activity monitors”. ESVD, 2006, 17 348-351). The physical activity monitors, mounted on collars, are placed around the dog's neck and tightened to the extent that they more with the skin but not so that they compress the underlying tissues. They were put on the dogs on D −5. […] This typically allows to see the difference in activity when the dogs have fleas and are developing pruritic and inflammatory lesions (i.e. dermatitis) and then again their activity during treatment with either the Test Compound or Prednisolone. The activity monitors are typically removed at the end of each phase on D12. Activity monitors measure the movement average within 15 seconds,
as §2, §3, §4

With `C[C@]12C=CC(=O)C=C1CC[C@@H]1[C@@H]2[C@@H](O)C[C@@]2(C)[C@H]1CC[C@]2(O)C(=O)CO` [Prednisolone, reference compound] the “Total score ctb (total lesion score compared to baseline), mean (standard deviation)” value ([1]; day 2) was −5.6 (6.3), the “Total score ctb (total lesion score compared to baseline), mean (standard deviation)” value ([1]; day 3) was −7.9 (6.7) and the “Total score ctb (total lesion score compared to baseline), mean (standard deviation)” value ([1]; day 4) was −9.2 (6.3). The “Total score ctb (total lesion score compared to baseline), mean (standard deviation)” value ([1]; day 5) was −9.9 (4.8), the “Total score ctb (total lesion score compared to baseline), mean (standard deviation)” value ([1]; day 6) was −11.8 (6.1) and the “Actical day, mean (standard deviation)” value ([2]; day 1 (treatment start)) was 74 (20) Average activity counts every 15 secs. For the same compound, the “Actical day, mean (standard deviation)” value ([2]; day 2) was 66 (50) Average activity counts every 15 secs, the “Actical day, mean (standard deviation)” value ([2]; day 3) was 49 (33) Average activity counts every 15 secs and the “Actical day, mean (standard deviation)” value ([2]; day 4) was 54 (22) Average activity counts every 15 secs. The “Actical day, mean (standard deviation)” value ([2]; day 5) was 47 (24) Average activity counts every 15 secs, the “Actical day, mean (standard deviation)” value ([2]; day 6) was 41 (14) Average activity counts every 15 secs and the “Actical day, mean (standard deviation)” value ([2]; fleas (day of challenge)) was 74 (22) Average activity counts every 15 secs. For the same compound, the “Actical day, mean (standard deviation)” value ([2]; pre (before exposure to fleas)) was 40 (10) Average activity counts every 15 secs, the “Actical night, mean (standard deviation)” value ([2]; Fleas (day of challenge)) was 8.6 (3.5) Average activity counts every 15 secs and the “Actical night, mean (standard deviation)” value ([2]; Pre (before exposure to fleas)) was 7.9 (4.4) Average activity counts every 15 secs. The “Actical night, mean (standard deviation)” value ([2]; day 1 (treatment start)) was 16.2 (2.9) Average activity counts every 15 secs, the “Actical night, mean (standard deviation)” value ([2]; day 2) was 6.8 (4.1) Average activity counts every 15 secs and the “Actical night, mean (standard deviation)” value ([2]; day 3) was 5.1 (2.8) Average activity counts every 15 secs. For the same compound, the “Actical night, mean (standard deviation)” value ([2]; day 4) was 7.3 (3.3) Average activity counts every 15 secs, the “Actical night, mean (standard deviation)” value ([2]; day 5) was 4.8 (2.2) Average activity counts every 15 secs and the “Actical night, mean (standard deviation)” value ([2]; day 6) was 5.3 (1.7) Average activity counts every 15 secs.
